Source: patent US12186330B2, “Compositions for improving cell viability and methods of use thereof” (Amylyx Pharmaceuticals Inc., priority 2013, dated 2025)
Several values for one entry are separate records, joined by “and”; a condition that tells them apart may be missing. Equal values may be shown once.

Key:
[1] = tested on: rat cortical neuron culture; assay: Cell death by LDH release after hydrogen peroxide exposure, peroxide exposure neuronal cell model; format: cell-based; conditions: for Cell Death Evaluated By LDH Following H2O2 Exposure, Average (%): compounds added 24 h before and for 24 h after, TUDCA 100 uM, 4-PBA 1 mM, DFX 100 uM, n=6, No Treatment = 0%; for protection against cell death after peroxide exposure (FIG. 2, significance): LDH, H2O2 exposure, rat cortical neuron culture
Method: (§1) Cortical mixed cultures were prepared from E18 Wistar rat embryos (Laboratory Animal Center, Kuopio, Finland). The cortices were dissected out and the tissue was cut to small pieces. The cells were separated by 15-min incubation with DNase and papain. The cells were collected by centrifugation (1500 rpm, 5 min). The tissue was triturated with a pipette and the cells were plated (3×10^5 cells/cm^2) on poly-L-lysine coated 48 wells in MEM supplemented with 2 g/l glucose, 2 mM glutamine, 0.1 μg/ml gentamicin, and 10% heat-inactivated horse serum (HS-HI) and […] bovine serum (FBS-HI). After three days in vitro, medium containing MEM with supplements and 5% both sera was changed to the cells. On day 6 in vitro, the unwanted cell division was inhibited by adding cytosine arabinoside (10 μM final concentration) for 24 h. The cultures were refed with MEM with supplements and 5% HS-HI before experiments.
(§2) The wells in good shape were chosen for experiment on day 10 in vitro. Test compounds were diluted in MEM with supplements and 5% HS-HI. 24 h later, 300 μM NMDA for 24 h was used as a control for total neuronal death, and H2O2 for 1 h was used to induce approximately 30-60% cell death. DFX (100 μM) was used as a potential positive control for inhibition of H2O2-induced cell death. Wells treated with medium only served as 0-control. Test compounds were pipetted to the cells 24 h before adding H2O2. After 60 min, the medium was removed and media containing the compounds was pipetted to the wells for 24 h.
After 24 h the culture media of all wells was collected and possible cell debris was removed by centrifugation (13 000 rpm, 3 min). A-100-μl aliquot was pipetted into a micro titer plate as duplicates, and equal amount of LDH reagent was pipetted to the wells. The absorbance at 340 nm was measured immediately using a 3-min kinetic measurement protocol in Multiskan Ascent ELISA reader (Thermo, Finland). The change in absorbance/min was determined, which is directly proportional to the released LDH (=cell death).
(§3) The number of wells per compound concentration used was 6 (n=6). One (1) concentration of 100 μM TUDCA and 1 mM 4-PBA separately and together were studied. Statistical analysis were calculated on Microsoft excel. The values were analyzed two-tailed, equal variance t-tests comparing all conditions to all other conditions.

[2] = tested on: rat cortical neuron culture; assay: Cell viability by PrestoBlue after hydrogen peroxide exposure, peroxide exposure neuronal cell model; format: cell-based; conditions: for protection of cell viability against peroxide exposure (FIG. 1, significance): PrestoBlue, H2O2 exposure, rat cortical neuron culture
Method: as §1, §2
After the cell culture medium was collected for LDH measurement, 100 μl PrestoBlue solution (1:10 dilution of PrestoBlue reagent (Invitrogen, # A13261, lot 915815C) in culture medium) was added to the wells for 1 h incubation at +37° C. CO2 incubator. Fluorescence at 560 nm excitation/615 nm emission was measured using Victor fluororeader (PerkinElmer).
as §3

[3] = H2O2 40 uM for 1 h, compounds added 24 h before and for 24 h after, TUDCA 100 uM, 4-PBA 1 mM, DFX 100 uM, n=6, No Treatment = 100%
[4] = Rattus norvegicus, Cortical neurone, H2O2 40 uM for 1 h, compounds added 24 h before and for 24 h after, TUDCA 100 uM, 4-PBA 1 mM, DFX 100 uM, n=6, No Treatment = 100%, read-out: Cell Viability Evaluated By PrestoBlue Following H2O2 Exposure, Average (%)

Structure (SMILES) | Cell Death Evaluated By LDH Following H2O2 Exposure, Average (%) ([1]; H2O2 40 uM for 1 h) | protection against cell death after peroxide exposure (FIG. 2, significance) [1] | Cell Viability Evaluated By PrestoBlue Following H2O2 Exposure, Average (%) [2, 3] [%] | protection of cell viability against peroxide exposure (FIG. 1, significance) [2] | viability at 1000 µM [2, 4] [%] | Cell Death Evaluated By LDH, Average (%), H2O2 exposure alone ([1]; H2O2 40 uM for 1 h, no test compound (the text's 'control')) [%] | viability at 40 µM ([2]; Rattus norvegicus, Cortical neurone, 1 h, H2O2 40 uM for 1 h, no test compound (the text's 'control'), read-out: Cell Viability Evaluated By PrestoBlue, Average (%), H2O2 exposure alone) [%] | viability at 100 µM [2, 4] [%] | Cell Death Evaluated By LDH, Average (%), NMDA negative control ([1]; NMDA 300 uM for 24 h, control for total neuronal death) [%]
O=C(O)CCCc1ccccc1 [4-PBA, 4-phenylbutyric acid] | 46.5% and 46.47% | does not provide significant protection | 72.20 | does not provide significant protection | 72 | – | – | – | –
OO [H2O2, hydrogen peroxide] | – | – | – | – | – | 62.48 | 48.6 | – | –
C[C@H](CCC(=O)NCCS(=O)(=O)O)[C@H]1CC[C@H]2[C@@H]3[C@@H](O)C[C@@H]4C[C@H](O)CC[C@]4(C)[C@H]3CC[C@]12C [TUDCA, tauroursodeoxycholic acid] | 60.4% and 60.37% | does not provide significant protection | 58.59 | does not provide significant protection | – | – | – | 59 | –
CN[C@H](CC(=O)O)C(=O)O [NMDA] | – | – | – | – | – | – | – | – | 100
